Test results taken from patent US20240400544A1, “N-(HYDROXYALKYL (HETERO)ARYL) TETRAHYDROFURAN CARBOXAMIDE ANALOGS AS MODULATORS OF SODIUM CHANNELS” (VERTEX PHARMACEUTICALS INCORPORATED, priority 2021, published 2024).

The compounds below were run against human NaV 1.8 (Homo sapiens, UniProt Q9Y5Y9) (assay: E-VIPR Assay Detecting and Measuring NaV Inhibition Properties). Details: HEK cells expressing a truncated form of human NaV 1.8 with full channel activity; electrical stimulation, membrane potential FRET dyes; read-out: measured IC50 value in the E-VIPR Assay.
Assay type: cell-based
Source text: E-VIPR Assay Detecting and Measuring NaV Inhibition Properties
Sodium ion channels are voltage-dependent proteins that can be activated by inducing membrane voltage changes by applying electric fields. The electrical stimulation instrument and methods of use, referred to as E-VIPR, are described in International Publication No. WO 2002/008748 A3 and C.-J. Huang et al. Characterization of voltage-gated sodium channel blockers by electrical stimulation and fluorescence detection of membrane potential, 24 Nature Biotech. 439-46 (2006), both of which are incorporated by reference in their entirety. The instrument comprises a microtiter plate handler, an optical system for exciting the coumarin dye while simultaneously recording the coumarin and oxonol emissions, a waveform generator, a current- or voltage-controlled amplifier, and parallel electrode pairs that are inserted into assay plate wells. Under integrated computer control, this instrument passes user-programmed electrical stimulus protocols to cells within the wells of the microtiter plate.
16-20 hours prior to running the assay on E-VIPR, HEK cells expressing a truncated form of human NaV 1.8 with full channel activity were seeded into microtiter 384-well plates, pre-coated with matrigel, at a density of 25,000 cells per well. 2.5-5% KIR2.1 Bacmam virus was added to the final cell suspension before seeding into cell plates. HEK cells were grown in Dulbecco's Modified Eagle's Medium (DMEM) supplemented with 10% FBS (Fetal Bovine Serum, qualified; Sigma #F4135), 1% NEAA (Non-Essential Amino Acids, Gibco #11140), 1% HEPES (Gibco #15630), 1% Pen-Strep (Penicillin-Streptomycin; Gibco #15140) and 5 μg/ml Blasticidin (Gibco #R210-01). Cells were expanded in vented cap cell culture flasks, with 90-95% humidity and 5% CO2.
2.5-5% KIR 2.1 Bacmam virus (produced in-house), prepared as described in Section 3.3 of J. A. Fornwald et al., Gene Expression in Mammalian Cells Using BacMam, a Modified Baculovirus System, 1350 Methods in Molecular Biology 95-116 (2016), the entire contents of which are incorporated by reference. The concentration used can be dependent on viral titer of each batch.
5 mM DiSBAC6(3), a voltage sensitive oxonol acceptor (CAS number 169211-44-3; 5-[3-(1,3-dihexylhexahydro-4,6-dioxo-2-thioxo-5-pyrimidinyl)-2-propen-1-ylidene]-1,3-dihexyldihydro-2-thioxo-4,6(1H,5H)-pyrimidinedione), in dry DMSO. The preparation of DiSBAC6(3) is analogous to that of DiSBAC4(3) as described in Voltage Sensing by Fluorescence Resonance Energy Transfer in Single Cells, Gonzalez, J. E. and Tsien, R. Y. (1995) Biophys. J. 69, 1272-1280.
5 mM CC2-DMPE, a commercially available membrane-bound coumarin phospholipid FRET donor (ThermoFisher Scientific catalog number K1017, CAS number 393782-57-5; tetradecanoic acid, 1,1′-[(1R)-1-[8-(6-chloro-7-hydroxy-2-oxo-2H-1-benzopyran-3-yl)-3-hydroxy-3-oxido-8-oxo-2,4-dioxa-7-aza-3-phosphaoct-1-yl]-1,2-ethanediyl] ester) was prepared in dry DMSO. See also, Improved indicators of cell membrane potential that use fluorescence resonance energy transfer, Gonzalez, J. E. and Tsien, R. Y. (1997) Chem. Biol. 4, 269-277.
Voltage Assay Background Suppression Compound (VABSC-1) is prepared in H2O (89-363 mM, range used to maintain solubility)
Human Serum (HS, Millipore #S1P1-01KL, or Sigma SLBR5469V and SLBR5470V as a 50%/50% mixture, for 25% assay final concentration)
• Sodium Chloride 160 mM (9.35 g/L), Potassium Chloride, 4.5 mM (0.335 g/L), Glucose • 10 mM (1.8 g/L), Magnesium Chloride (Anhydrous) 1 mM (0.095 g/L), Calcium • Chloride 2 mM (0.222 g/L), HEPES 10 mM (2.38 g/L) in water.
• Sodium Chloride 96 mM (5.61 g/L), Potassium Chloride 4.5 mM (0.335 g/L), • Tetramethylammonium (TMA)-Cl 64 mM (7.01 g/L), Glucose 10 mM (1.8 g/L), • Magnesium Chloride (Anhydrous) 1 mM (0.095 g/L), Calcium Chloride 2 mM (0.222 • g/L) HEPES 10 mM (2.38 g/L) in water. […]

human NaV 1.8, sequence (Q9Y5Y9 126-1722 limits assumed): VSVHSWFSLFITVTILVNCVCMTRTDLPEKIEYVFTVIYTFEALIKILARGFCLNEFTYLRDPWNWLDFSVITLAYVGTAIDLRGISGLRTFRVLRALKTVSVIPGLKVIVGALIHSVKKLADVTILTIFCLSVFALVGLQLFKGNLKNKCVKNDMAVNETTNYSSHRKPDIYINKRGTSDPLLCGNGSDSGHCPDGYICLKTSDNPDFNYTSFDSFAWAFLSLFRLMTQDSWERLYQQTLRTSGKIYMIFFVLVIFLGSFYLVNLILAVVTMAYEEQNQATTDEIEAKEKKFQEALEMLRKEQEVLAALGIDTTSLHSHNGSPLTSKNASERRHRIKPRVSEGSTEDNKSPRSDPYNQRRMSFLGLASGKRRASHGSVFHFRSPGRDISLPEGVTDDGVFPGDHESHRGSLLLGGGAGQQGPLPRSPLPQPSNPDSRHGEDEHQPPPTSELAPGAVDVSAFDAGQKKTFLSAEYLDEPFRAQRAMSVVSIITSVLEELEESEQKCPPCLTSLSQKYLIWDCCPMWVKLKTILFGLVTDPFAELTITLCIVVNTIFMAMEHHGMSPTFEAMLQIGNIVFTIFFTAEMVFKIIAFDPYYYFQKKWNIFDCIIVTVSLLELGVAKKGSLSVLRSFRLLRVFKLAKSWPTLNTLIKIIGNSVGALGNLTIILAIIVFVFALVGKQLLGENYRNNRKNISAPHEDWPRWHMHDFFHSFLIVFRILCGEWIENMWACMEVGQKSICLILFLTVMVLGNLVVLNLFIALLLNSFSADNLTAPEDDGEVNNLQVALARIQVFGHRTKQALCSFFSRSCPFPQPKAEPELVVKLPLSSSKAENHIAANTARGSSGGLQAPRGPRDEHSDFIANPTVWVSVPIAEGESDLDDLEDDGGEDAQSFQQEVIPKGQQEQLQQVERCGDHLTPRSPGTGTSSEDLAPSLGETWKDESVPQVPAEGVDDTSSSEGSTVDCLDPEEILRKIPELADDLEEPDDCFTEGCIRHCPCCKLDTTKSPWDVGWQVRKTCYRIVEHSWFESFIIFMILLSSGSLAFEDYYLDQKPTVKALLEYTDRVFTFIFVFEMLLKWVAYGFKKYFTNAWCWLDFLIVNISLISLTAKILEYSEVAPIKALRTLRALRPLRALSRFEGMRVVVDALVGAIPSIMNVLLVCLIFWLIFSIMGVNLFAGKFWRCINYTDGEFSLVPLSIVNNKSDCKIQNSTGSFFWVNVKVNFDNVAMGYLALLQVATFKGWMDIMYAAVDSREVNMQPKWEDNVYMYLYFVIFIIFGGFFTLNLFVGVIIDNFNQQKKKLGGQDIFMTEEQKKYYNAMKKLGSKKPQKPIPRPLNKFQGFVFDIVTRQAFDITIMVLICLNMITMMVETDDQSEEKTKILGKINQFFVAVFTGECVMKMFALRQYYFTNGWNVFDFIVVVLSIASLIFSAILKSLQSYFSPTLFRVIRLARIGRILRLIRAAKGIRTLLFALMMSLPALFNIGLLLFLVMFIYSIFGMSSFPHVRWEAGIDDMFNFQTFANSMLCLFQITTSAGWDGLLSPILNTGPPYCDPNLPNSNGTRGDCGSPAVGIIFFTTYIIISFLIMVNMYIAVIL

| Compound | IC50 |
| --- | --- |
| COc1c([C@H]2[C@H](C(=O)Nc3cnc4c(c3)OCC4O)O[C@@](C)(C(F)(F)F)[C@H]2C)ccc(F)c1F (single isomer, unassigned) [Compound 1, rel-(2R*,3S*,4S*,5R*)-3-(3,4-difluoro-2-methoxyphenyl)-N-(3-hydroxy-2,3-dihydrofuro[3,2-b]pyridin-6-yl)-4,5-dimethyl-5-(trifluoromethyl)tetrahydrofuran-2-carboxamide] | 10 to 100 nM |
| COc1c([C@H]2[C@H](C(=O)Nc3cnc4c(c3)OCC4O)O[C@@](C)(C(F)(F)F)[C@H]2C)ccc(F)c1F (single isomer, unassigned) [Compound 2, rel-(2R*,3S*,4S*,5R*)-3-(3,4-difluoro-2-methoxyphenyl)-N-(3-hydroxy-2,3-dihydrofuro[3,2-b]pyridin-6-yl)-4,5-dimethyl-5-(trifluoromethyl)tetrahydrofuran-2-carboxamide] | 100 to 1000 nM |
| COc1c([C@H]2[C@H](C(=O)Nc3cnc4c(c3)CCC4O)O[C@@](C)(C(F)(F)F)[C@H]2C)ccc(F)c1F (single isomer, unassigned) [Compound 3, rel-(2R*,3S*,4S*,5R*)-3-(3,4-difluoro-2-methoxyphenyl)-N-(7-hydroxy-6,7-dihydro-5H-cyclopenta[b]pyridin-3-yl)-4,5-dimethyl-5-(trifluoromethyl)tetrahydrofuran-2-carboxamide] | 100 to 1000 nM |
| COc1c([C@H]2[C@H](C(=O)Nc3cnc4c(c3)CCC4O)O[C@@](C)(C(F)(F)F)[C@H]2C)ccc(F)c1F (single isomer, unassigned) [Compound 4, rel-(2R*,3S*,4S*,5R*)-3-(3,4-difluoro-2-methoxyphenyl)-N-(7-hydroxy-6,7-dihydro-5H-cyclopenta[b]pyridin-3-yl)-4,5-dimethyl-5-(trifluoromethyl)tetrahydrofuran-2-carboxamide] | 10 to 100 nM |
| CO[C@@H](C)COc1c([C@H]2[C@H](C(=O)Nc3ccc(CO)nc3)O[C@@](C)(C(F)(F)F)[C@H]2C)ccc(F)c1F [Compound 5, (2R,3S,4S,5R)-3-(3,4-difluoro-2-((S)-2-methoxypropoxy)phenyl)-N-(6-(hydroxymethyl)pyridin-3-yl)-4,5-dimethyl-5-(trifluoromethyl)tetrahydrofuran-2-carboxamide] | 10 to 100 nM |
| CO[C@H](C)COc1c([C@H]2[C@H](C(=O)Nc3ccc(CO)nc3)O[C@@](C)(C(F)(F)F)[C@H]2C)ccc(F)c1F [Compound 6, (2R,3S,4S,5R)-3-(3,4-difluoro-2-((R)-2-methoxypropoxy)phenyl)-N-(6-(hydroxymethyl)pyridin-3-yl)-4,5-dimethyl-5-(trifluoromethyl)tetrahydrofuran-2-carboxamide] | 10 to 100 nM |
| C[C@H]1[C@@H](c2ccc(F)c(F)c2OCC(=O)N(C)C)[C@H](C(=O)Nc2ccc(CO)nc2)O[C@@]1(C)C(F)(F)F [Compound 7, (2R,3S,4S,5R)-3-(2-(2-(dimethylamino)-2-oxoethoxy)-3,4-difluorophenyl)-N-(6-(hydroxymethyl)pyridin-3-yl)-4,5-dimethyl-5-(trifluoromethyl)tetrahydrofuran-2-carboxamide] | 10 to 100 nM |
| C[C@H]1[C@@H](c2ccc(F)c(F)c2OC2CC3(COC3)C2)[C@H](C(=O)Nc2ccc(CO)nc2)O[C@@]1(C)C(F)(F)F [Compound 8, (2R,3S,4S,5R)-3-(2-((2-oxaspiro[3.3]heptan-6-yl)oxy)-3,4-difluorophenyl)-N-(6-(hydroxymethyl)pyridin-3-yl)-4,5-dimethyl-5-(trifluoromethyl)tetrahydrofuran-2-carboxamide] | 100 to 1000 nM |
| C[C@H]1[C@@H](c2ccc(F)c(F)c2OCC2CCOC2)[C@H](C(=O)Nc2ccc(CO)nc2)O[C@@]1(C)C(F)(F)F (stereo partly drawn) [Compound 9, (2R,3S,4S,5R)-3-(3,4-difluoro-2-((tetrahydrofuran-3-yl)methoxy)phenyl)-N-(6-(hydroxymethyl)pyridin-3-yl)-4,5-dimethyl-5-(trifluoromethyl)tetrahydrofuran-2-carboxamide] | 10 to 100 nM |

The next lines start with the values.

| IC50 | Compound |
| --- | --- |
| ≥ 1000 nM | COCCOc1c([C@@H]2[C@@H](C(=O)Nc3cnc(C(O)CO)nc3)O[C@](C)(C(F)(F)F)[C@@H]2C)ccc(F)c1C (single isomer, unassigned) [Compound 13] |
| ≥ 1000 nM | COCCOc1c([C@H]2[C@@H](C)[C@@](C)(C(F)(F)F)O[C@H]2C(=O)Nc2cnc(C(O)CO)nc2)ccc(F)c1C (single isomer, unassigned) [Compound 15] |
| ≥ 1000 nM | COCCOc1c([C@H]2[C@@H](C(=O)Nc3cnc(C(O)CO)nc3)O[C@@](C)(C(F)(F)F)[C@H]2C)ccc(F)c1C (single isomer, unassigned) [Compound 16] |
| 10 to 100 nM | COCCOc1c([C@H]2[C@H](C(=O)Nc3cnc(C(O)CO)nc3)O[C@@](C)(C(F)(F)F)[C@H]2C)ccc(F)c1C (single isomer, unassigned) [Compound 17] |
| 10 to 100 nM | COCCOc1c([C@H]2[C@H](C(=O)Nc3ccc(C(O)COC)nc3)O[C@@](C)(C(F)(F)F)[C@H]2C)ccc(F)c1F (single isomer, unassigned) [Compound 21, rel-(2R*,3S*,4S*,5R*)-3-(3,4-difluoro-2-(2-methoxyethoxy)phenyl)-N-(6-(1-hydroxy-2-methoxyethyl)pyridin-3-yl)-4,5-dimethyl-5-(trifluoromethyl)tetrahydrofuran-2-carboxamide] |
| < 10 nM | COCCOc1c([C@H]2[C@H](C(=O)Nc3ccc([C@@H](O)CO)nc3)O[C@@](C)(C(F)(F)F)[C@H]2C)ccc(F)c1F [Compound 10, (2R,3S,4S,5R)-3-(3,4-difluoro-2-(2-methoxyethoxy)phenyl)-N-(6-((R)-1,2-dihydroxyethyl)pyridin-3-yl)-4,5-dimethyl-5-(trifluoromethyl)tetrahydrofuran-2-carboxamide] |
| 10 to 100 nM | C[C@H]1[C@@H](c2ccc(F)c(F)c2OCCN2CCOCC2)[C@H](C(=O)Nc2ccc([C@@H](O)CO)nc2)O[C@@]1(C)C(F)(F)F [Compound 11, (2R,3S,4S,5R)-3-(3,4-difluoro-2-(2-morpholinoethoxy)phenyl)-N-(6-((R)-1,2-dihydroxyethyl)pyridin-3-yl)-4,5-dimethyl-5-(trifluoromethyl)tetrahydrofuran-2-carboxamide] |
| 10 to 100 nM | C[C@H]1[C@@H](c2ccc(F)c(F)c2OCCOC(F)F)[C@H](C(=O)Nc2ccc([C@@H](O)CO)nc2)O[C@@]1(C)C(F)(F)F [Compound 12, (2R,3S,4S,5R)-3-(2-(2-(difluoromethoxy)ethoxy)-3,4-difluorophenyl)-N-(6-((R)-1,2-dihydroxyethyl)pyridin-3-yl)-4,5-dimethy1-5-(trifluoromethyl)tetrahydrofuran-2-carboxamide] |
| 10 to 100 nM | C[C@H]1[C@@H](c2ccc(F)c(F)c2OCCO)[C@H](C(=O)Nc2ccc(CO)nc2)O[C@@]1(C)C(F)(F)F [Compound 23, (2R,3S,4S,5R)-3-(3,4-difluoro-2-(2-hydroxyethoxy)phenyl)-N-(6-(hydroxymethyl)pyridin-3-yl)-4,5-dimethyl-5-(trifluoromethyl)tetrahydrofuran-2-carboxamide] |
